Assay: Plasma levels of J147 at the time of surgery
Type: in vivo, Wistar rats
Details: absence of an appropriate peak taken as zero
Experimental: Male Wistar rats (˜350 g) were randomly divided into 4 experimental groups; non-surgery; control abdominal surgery; surgery+acute J147 treatment (7 mg/rat by gavage, 4-5 hours before surgery); surgery+chronic J147 (500 mg/kg food, 1 week before surgery until the end of the study). Timed blood samples were collected. Days 9-11 post surgery, general behavior (Open field: OF) and cognitive performance (Novel Object/Novel Location Recognition: NOR/NLR; Morris Water Maze: MWM) were tested. Day 14, rats were sacrificed and blood and brain tissue were collected for further analyses. (Neuro)inflammation was examined by circulating cytokine levels and microglia activation in the brain.
One week before surgery, chronic treatment J147 treatment started and continued until the end of the experiment. The day of surgery, rats for acute treatment received their J147 (4-5 hours before surgery) by gavage, while the designated control rats received vehicle gavage. Rats were subjected to abdominal surgery, and allowed to recover. After that rats were housed individually. […] The first week post-surgery, rats were weighed daily and food intake was measured. […]
For chronic oral treatment, J147 was added to the food (Teklad 2018, Envigo) at a concentration of 500 mg/kg. […] After surgery food intake was measured daily during the last hour of the light phase. […]

mean concentration of J147 in plasma during surgery (acute J147, 7 mg/rat by gavage 4-5 hours before surgery): 3.103 ng/mL | concentration at 1 week (male, Wistar, rat, plasma, oral, chronic J147, 500 mg/kg food from 1 week before surgery, read-out: mean concentration of J147 in plasma during surgery): 0.233 ng/mL
SMILES: COc1cccc(/C=N/N(C(=O)C(F)(F)F)c2ccc(C)cc2C)c1 [J147]
